From patent publication US20240158348A1, “HERBICIDAL CYCLIC AMIDES N-SUBSTITUTED WITH A HALOALKYLSULFONYLANILIDE GROUP” (FMC Corporation, priority 2021, published 2024)

Key:
Format in all cases: in vivo
[1] = tested on: corn (Zea mays); assay: Test C preemergence, corn; conditions: 0 is no effect, 100 is complete control
Outline: (§1)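 Visual injury rating, 0 (no effect) to 100 (complete control), versus untreated controls after 10 or 12 days in the greenhouse. Compounds were formulated in non-phytotoxic solvent plus surfactant and applied either as a directed soil spray at sowing or onto emerged one- to two-leaf plants.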

[2] = tested on: goosegrass (Eleusine indica); assay: Test C preemergence, goosegrass; conditions: 0 is no effect, 100 is complete control
Outline: as §1

[3] = tested on: ragweed (common ragweed, Ambrosia artemisiifolia); assay: Test C preemergence, ragweed; conditions: 0 is no effect, 100 is complete control
Outline: as §1

[4] = tested on: blackgrass (Alopecurus myosuroides); assay: Test C postemergence, blackgrass; conditions: visual injury, 0 to 100 scale (0 no effect, 100 complete control)
Outline: (§2)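 Steps: sow in loam soil blended with sand; treat soil preemergence by directed spray, or treat young plants (2–10 cm, one to two leaves) postemergence; hold in greenhouse 10 or 12 days; rate injury visually relative to untreated controls on a 0–100 scale.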

[5] = tested on: corn (Zea mays); assay: Test C postemergence, corn; conditions: visual injury, 0 to 100 scale (0 no effect, 100 complete control)
[6] = tested on: foxtail, giant (giant foxtail, Setaria faberi); assay: Test C postemergence, giant foxtail; conditions: visual injury, 0 to 100 scale (0 no effect, 100 complete control)
[7] = tested on: soybean (Glycine max); assay: Test C postemergence, soybean; conditions: visual injury, 0 to 100 scale (0 no effect, 100 complete control)
[8] = tested on: wheat (Triticum aestivum); assay: Test C postemergence, wheat; conditions: visual injury, 0 to 100 scale (0 no effect, 100 complete control)
Outline: as §2

Row | Structure (SMILES) | Plant response rating (0 to 100 scale), Corn ([1]; 31 g ai/ha Preemergence) | Plant response rating (0 to 100 scale), Corn ([1]; 125 g ai/ha Preemergence) | Plant response rating (0 to 100 scale), Goosegrass ([2]; 31 g ai/ha Preemergence) | Plant response rating (0 to 100 scale), Goosegrass ([2]; 125 g ai/ha Preemergence) | Plant response rating (0 to 100 scale), Ragweed ([3]; 31 g ai/ha Preemergence) | Plant response rating (0 to 100 scale), Ragweed ([3]; 125 g ai/ha Preemergence) | Blackgrass plant response rating ([4]; 31 g ai/ha Postemergence) | Blackgrass plant response rating ([4]; 125 g ai/ha Postemergence) | Corn plant response rating ([5]; 31 g ai/ha Postemergence) | Corn plant response rating ([5]; 125 g ai/ha Postemergence) | Foxtail, Giant plant response rating ([6]; 31 g ai/ha Postemergence) | Foxtail, Giant plant response rating ([6]; 125 g ai/ha Postemergence) | Soybean plant response rating ([7]; 31 g ai/ha Postemergence) | Soybean plant response rating ([7]; 125 g ai/ha Postemergence) | Wheat plant response rating ([8]; 31 g ai/ha Postemergence) | Wheat plant response rating ([8]; 125 g ai/ha Postemergence)
1 | Cc1cc(C)c(N2CCC(OCC3CCC3)C2=O)cc1NS(=O)(=O)C(F)(F)F (stereo not drawn) [Compound 43] | 40 | 100 | 60 | 100 | 10 | 60 | 0 | 50 | 40 | 90 | 10 | 90 | 80 | 90 | 30 | 70
2 | Cc1c(NS(=O)(=O)C(F)(F)F)cc(N2CCC(OC3CCC3)C2=O)c(C)c1C (stereo not drawn) [Compound 45] | 90 | 100 | 100 | 100 | 80 | 100 | 10 | 40 | 20 | 90 | 30 | 80 | 80 | 100 | 20 | 60
3 | Cc1c(NS(=O)(=O)C(F)(F)F)cc(N2CCC(OC3CC3)C2=O)c(C)c1C (stereo not drawn) [Compound 47] | 30 | 90 | 100 | 100 | 70 | 100 | 40 | 70 | 70 | 90 | 70 | 90 | 70 | 90 | 80 | 80
4 | Cc1c(N2CCC(OC3CC3)C2=O)cc(N(C(=O)OCC(C)C)S(=O)(=O)C(F)(F)F)c(C)c1C (stereo not drawn) [Compound 50] | 10 | 90 | 90 | 100 | 30 | 90 | 10 | 40 | 30 | 90 | 50 | 80 | 60 | 80 | 60 | 80
5 | Cc1c(N2CCC(OC3CCC3)C2=O)cc(N(COC(=O)C(C)(C)C)S(=O)(=O)C(F)(F)F)c(C)c1C (stereo not drawn) [Compound 51] | 0 | 40 | 0 | 90 | 0 | 70 | 10 | 20 | 0 | 60 | 0 | 40 | 30 | 60 | 20 | 70
6 | Cc1cc(C)c(N(COC(=O)C(C)(C)C)S(=O)(=O)C(F)(F)F)cc1N1CCC(OCC2CC2)C1=O (stereo not drawn) [Compound 53] | 0 | 50 | 60 | 100 | 60 | 70 | 20 | 60 | 20 | 60 | 30 | 90 | 50 | 60 | 40 | 80
7 | Cc1cc(C)c(N(COC(=O)C(C)(C)C)S(=O)(=O)C(F)(F)F)cc1N1CCC(OCC2CC2(F)F)C1=O (stereo not drawn) [Compound 54] | 0 | 30 | 20 | 100 | 0 | 60 | 30 | 90 | 0 | 80 | 30 | 70 | 50 | 60 | 30 | 70
8 | Cc1cc(C)c(N(COC(=O)C(C)(C)C)S(=O)(=O)C(F)(F)F)cc1N1CCC(OCC2CCC2)C1=O (stereo not drawn) [Compound 56] | 0 | 10 | 10 | 90 | 0 | 30 | 0 | 20 | 0 | 30 | 10 | 40 | 40 | 50 | 0 | 70
9 | Cc1cc(C)c(N2CCC(OCC3CCCC3)C2=O)cc1NS(=O)(=O)C(F)(F)F (stereo not drawn) [Compound 57] | 0 | 50 | 90 | 100 | 0 | 80 | 40 | 80 | 0 | 40 | 60 | 70 | 80 | 100 | 70 | 70
10 | C#CC(C)OC1CCN(c2cc(NS(=O)(=O)C(F)(F)F)c(C)cc2C)C1=O (stereo not drawn) [Compound 58] | 20 | 100 | 100 | 100 | 80 | 90 | 50 | 70 | 60 | 90 | 60 | 90 | 60 | 90 | 70 | 70
11 | C=C(C)COC1CCN(c2cc(NS(=O)(=O)C(F)(F)F)c(C)cc2C)C1=O (stereo not drawn) [Compound 59] | 40 | 100 | 90 | 100 | 50 | 70 | 10 | 80 | 20 | 90 | 10 | 90 | 60 | 80 | 50 | 80
12 | Cc1c(NS(=O)(=O)C(F)(F)F)cc(N2CCC(OCC3CCC3)C2=O)c(C)c1F (stereo not drawn) [Compound 64] | 10 | 60 | 70 | 100 | 90 | 100 | 0 | 20 | 0 | 10 | 0 | 20 | 60 | 90 | 0 | 20
